Measured values: US10010545B1, “Antibiotic compositions and methods of use” (University of South Florida, priority 2013, dated 2018)

What was measured:
Enterococcus faecium = test: Growth testing against ESKAPE pathogens: Enterococcus faecium; type: cell-based; set-up: key: Growth; X: No Growth
Protocol: (§1) Six analogs (FIG. 2) of the ciprofloxacin-N thiolated β-lactam were successfully synthesized. All these compounds were then tested against ESKAPE pathogens for bioactivity. The ESKAPE pathogens are a collection of six deadly superbugs, Enterococcus faecium, Staphylococcus aureus, Klebsiella pneumoniae, Acinetobacter baumannii, Pseudomonas aeruginosa, and Enterobacter species. […] G denotes growth and X denotes no growth in the tables.

Staphylococcus aureus = test: Growth testing against ESKAPE pathogens: Staphylococcus aureus; type: cell-based; set-up: key to Activity against Staphylococcus aureus (growth observed): Growth; X: No Growth
Protocol: as §1

Klebesiella pneumonia = test: Growth testing against ESKAPE pathogens: Klebesiella pneumonia; type: cell-based, Klebsiella pneumoniae; set-up: key: Growth; X: No Growth
Protocol: as §1

Acinetobacter baumannii = test: Growth testing against ESKAPE pathogens: Acinetobacter baumannii; type: cell-based; set-up: key: Growth; X: No Growth
Protocol: as §1

Pseudomonas aeruginosa = test: Growth testing against ESKAPE pathogens: Pseudomonas aeruginosa; type: cell-based; set-up: key: Growth; X: No Growth
Protocol: as §1

CCCCCCC(=O)N1CCN(c2cc3c(cc2F)c(=O)c(C(=O)OC2C(=O)N(SC)C2c2ccccc2)cn3C2CC2)CC1 (stereo not shown) [Lactam 127]
G: Activity against Enterococcus faecium (growth observed) (Enterococcus faecium; 1 μg/ml) | Activity against Enterococcus faecium (growth observed) (Enterococcus faecium; 2 μg/ml) | Activity against Enterococcus faecium (growth observed) (Enterococcus faecium; 3 μg/ml) | Activity against Enterococcus faecium (growth observed) (Enterococcus faecium; 4 μg/ml) | Activity against Enterococcus faecium (growth observed) (Enterococcus faecium; 5 μg/ml) | Activity against Enterococcus faecium (growth observed) (Enterococcus faecium; 6 μg/ml) | Activity against Enterococcus faecium (growth observed) (Enterococcus faecium; 7 μg/ml) | Activity against Enterococcus faecium (growth observed) (Enterococcus faecium; 8 μg/ml) | Activity against Enterococcus faecium (growth observed) (Enterococcus faecium; 9 μg/ml) | Activity against Enterococcus faecium (growth observed) (Enterococcus faecium; 10 μg/ml) | Activity against Enterococcus faecium (growth observed) (Enterococcus faecium; 25 μg/ml) | Activity against Staphylococcus aureus (growth observed) (Staphylococcus aureus; 1 μg/ml) | Activity against Staphylococcus aureus (growth observed) (Staphylococcus aureus; 2 μg/ml) | Activity against Staphylococcus aureus (growth observed) (Staphylococcus aureus; 3 μg/ml) | Activity against Staphylococcus aureus (growth observed) (Staphylococcus aureus; 4 μg/ml) | Activity against Staphylococcus aureus (growth observed) (Staphylococcus aureus; 5 μg/ml) | Activity against Staphylococcus aureus (growth observed) (Staphylococcus aureus; 6 μg/ml) | Activity against Staphylococcus aureus (growth observed) (Staphylococcus aureus; 7 μg/ml) | Activity against Staphylococcus aureus (growth observed) (Staphylococcus aureus; 8 μg/ml) | Activity against Staphylococcus aureus (growth observed) (Staphylococcus aureus; 9 μg/ml) | Activity against Staphylococcus aureus (growth observed) (Staphylococcus aureus; 10 μg/ml) | Activity against Staphylococcus aureus (growth observed) (Staphylococcus aureus; 25 μg/ml) | Activity against Klebesiella pneumonia (growth observed) (Klebesiella pneumonia; 1 μg/ml) | Activity against Klebesiella pneumonia (growth observed) (Klebesiella pneumonia; 2 μg/ml) | Activity against Klebesiella pneumonia (growth observed) (Klebesiella pneumonia; 3 μg/ml) | Activity against Klebesiella pneumonia (growth observed) (Klebesiella pneumonia; 4 μg/ml) | Activity against Klebesiella pneumonia (growth observed) (Klebesiella pneumonia; 5 μg/ml) | Activity against Klebesiella pneumonia (growth observed) (Klebesiella pneumonia; 6 μg/ml) | Activity against Klebesiella pneumonia (growth observed) (Klebesiella pneumonia; 7 μg/ml) | Activity against Klebesiella pneumonia (growth observed) (Klebesiella pneumonia; 8 μg/ml) | Activity against Klebesiella pneumonia (growth observed) (Klebesiella pneumonia; 9 μg/ml) | Activity against Klebesiella pneumonia (growth observed) (Klebesiella pneumonia; 10 μg/ml) | Activity against Klebesiella pneumonia (growth observed) (Klebesiella pneumonia; 25 μg/ml) | Activity against Acinetobacter baumannii (growth observed) (Acinetobacter baumannii; 1 μg/ml) | Activity against Acinetobacter baumannii (growth observed) (Acinetobacter baumannii; 2 μg/ml) | Activity against Acinetobacter baumannii (growth observed) (Acinetobacter baumannii; 3 μg/ml) | Activity against Acinetobacter baumannii (growth observed) (Acinetobacter baumannii; 4 μg/ml) | Activity against Acinetobacter baumannii (growth observed) (Acinetobacter baumannii; 5 μg/ml) | Activity against Acinetobacter baumannii (growth observed) (Acinetobacter baumannii; 6 μg/ml) | Activity against Acinetobacter baumannii (growth observed) (Acinetobacter baumannii; 7 μg/ml) | Activity against Acinetobacter baumannii (growth observed) (Acinetobacter baumannii; 8 μg/ml) | Activity against Acinetobacter baumannii (growth observed) (Acinetobacter baumannii; 9 μg/ml) | Activity against Acinetobacter baumannii (growth observed) (Acinetobacter baumannii; 10 μg/ml) | Activity against Acinetobacter baumannii (growth observed) (Acinetobacter baumannii; 25 μg/ml) | Activity against Pseudomonas aeruginosa (growth observed) (Pseudomonas aeruginosa; 1 μg/ml) | Activity against Pseudomonas aeruginosa (growth observed) (Pseudomonas aeruginosa; 2 μg/ml) | Activity against Pseudomonas aeruginosa (growth observed) (Pseudomonas aeruginosa; 3 μg/ml) | Activity against Pseudomonas aeruginosa (growth observed) (Pseudomonas aeruginosa; 4 μg/ml) | Activity against Pseudomonas aeruginosa (growth observed) (Pseudomonas aeruginosa; 5 μg/ml) | Activity against Pseudomonas aeruginosa (growth observed) (Pseudomonas aeruginosa; 6 μg/ml) | Activity against Pseudomonas aeruginosa (growth observed) (Pseudomonas aeruginosa; 7 μg/ml) | Activity against Pseudomonas aeruginosa (growth observed) (Pseudomonas aeruginosa; 8 μg/ml) | Activity against Pseudomonas aeruginosa (growth observed) (Pseudomonas aeruginosa; 9 μg/ml) | Activity against Pseudomonas aeruginosa (growth observed) (Pseudomonas aeruginosa; 10 μg/ml) | Activity against Pseudomonas aeruginosa (growth observed) (Pseudomonas aeruginosa; 25 μg/ml)
